What was measured:
[1] = tested on: wild-type mice; test: Classic fear conditioning in wild-type mice; assay type: in vivo, mouse; settings: five weeks of daily IBET858 injections
Method: […] Albans, VT) as described previously (Schaefer et al., “Control of Cognition and Adaptive Behavior by the GLP/G9a Epigenetic Suppressor Complex,” Neuron 64:678-691 (2009), which is hereby incorporated by reference in its entirety). Briefly, a mouse was placed in the test chamber (house lights on) and allowed to explore freely for 2 min. A white noise (80 dB) was then presented for 30 s, co-terminating with a mild foot shock (2 s, 0.5 mA). Two minutes later the same sequence of auditory cue-shock pairing was repeated. The mouse was removed from the chamber 30 s later and returned to its home cage. Freezing behavior was continuously recorded during the time spent in the test chamber. […] Twenty-four hours later, the mouse was placed back into the test chamber for 5 min and freezing behavior was recorded (context test). Two hours later, the mouse was tested for freezing in response to the auditory cue. Environmental and contextual cues were changed for the auditory cue test. The auditory cue test was divided into two phases: 3 min in the absence of the auditory cue and 3 min of the auditory cue. The time freezing during each test was converted to a percentage of freezing value.
To understand if these cellular and molecular improvements impact behavior, memory was assessed using the classic fear conditioning paradigm.

[2] = tested on: primary cortical neurons; test: Gene expression in primary cortical neurons; assay type: cell-based, mouse
Excerpt: Primary Cortical Neuron Culture. Embryonic day 18 (E18) timed-pregnant female mice were anesthetized with CO2 and sacrificed by cervical dislocation. In a dissection hood, 24-26 embryos per experiment were collected through an incision of the mother's abdomen, taken out of the amniotic sacs and decapitated in ice cold Hank's Balanced Salt Solution (HBSS). Using fine scissors and forceps, brains were rapidly dissected and the cortex cleared from meninges and isolated under a dissection microscope. Cortices were collected in ice cold HBSS and kept on ice until all embryos had been dissected. In a tissue culture hood, HBSS was removed and the cortex tissue digested by 0.25% Trypsin-EDTA for 12 minutes at 37° C., followed by DNase1 treatment for 10 minutes at 37° C. The tissue was dissociated by serial trituration with a 25 ml serological pipette, followed by trituration with 10 ml and 5 ml serological pipettes. Cell suspension was washed once with DMEM medium, supplemented with 10% FBS and 1% penicillin/streptomycin and passed through a […] cell strainer before counted on a hemocytometer. Single cells were seeded on poly-D-lysine (0.1 mg ml-1) coated wells at a density of 1×10^6 cells per well on a 12-well plate. Cells were grown in Neurobasal medium, complemented with B27 supplement, N2 supplement, and 0.5 mM L-glutamine and maintained at 37° C. in 5% CO2 for 1 week. […] Cultures were washed with phosphate-buffered saline (PBS) on ice and processed for RNA isolation using TRIzol/Chloroform extraction.
RNA Isolation. For in vitro gene expression analysis, neuronal culture plates were washed once with PBS, and TRIzol was added directly to cultures to isolate RNA (n=3 per group). For in vivo gene expression analysis, mice were anesthetized with CO2 and decapitated. The striata from two control and acute or chronic I-BET treated mice were rapidly dissected on ice and frozen in liquid nitrogen. RNA extraction from frozen samples was performed using TRIzol/Chloroform according to manufacturer's instructions (Invitrogen Corporation, Carlsbad, CA). RNA was precipitated overnight at −80° C. in isopropanol with 0.15 M sodium acetate, washed twice with 70% ethanol, air-dried, and resuspended in RNase-free water. RNA samples were purified using Rneasy Micro columns (Qiagen) with on-column DNAse treatment as specified by manufacturer. […]
RNA Sequencing. […] Duplexed libraries were sequenced on HiSeq 2000, typically yielding on average 60 million, 100 bp long single-end reads per sample (Illumina). […] After filtering out adaptor and low quality reads, reads were mapped using TopHat (version 2.0.8) to the mm9 mouse genome. […] Differentially expressed autosomal genes between control and acute I-BET858 or chronic I-BET858 libraries were determined using a p-value <0.05 and fold change of >2. […]

[3] = tested on: primary microglia exposed to lipopolysaccharide (LPS); test: LPS-induced gene expression in primary microglia pretreated with IBET858; assay type: cell-based, mouse
Method: Primary Microglia Culture. Postnatal day 0 C57/Bl6 mice were decapitated in ice cold HBSS. The forebrain was rapidly dissected and treated as above in order to generate a single cell suspension. 60,000 cells per cm2 were seeded in vented, Poly-D-lysine coated flasks. Mixed glial cultures were maintained in DMEM containing 10% FBS and 1% penicillin/streptomycin for 3 weeks. After three weeks, microglia were isolated by shaking the mixed glial cultures for 4 hours at 360 rpm and re-plated at density on 100,0000 cells/cm2. Cultures were given 24 hours to settle before treatment. Cultures were pre-treated for 30 minutes with either DMSO (0.01%) or 1 uM IBET858. After 30 minutes, LPS (100 ng/ml) was added to the cultures. RNA was isolated with Trizol LS according to the manufacturer's recommendations after 1, 4 and 12 hours of LPS treatment.
To understand if BET proteins regulate the dynamic induction of pro-inflammatory gene networks, primary microglia were exposed to the bacterial cell wall component lipopolysaccharide, LPS. T, which is recognized by Tlr4, triggers a signal cascade that leads to an extensive increase in cytokine and chemokine production which causes significant damage to host tissues if left unrestrained. Nicodeme et al., “Suppression of Inflammation by a Synthetic Histone Mimic,” Nature 468:1119-1123 (2010), which is hereby incorporated by reference in its entirety. As before, microglial identity genes Tyrobp, Hexb and Trem2 were unaffected by IBET858 (FIG. 4B). As expected, LPS causes a time-dependent increase in pro-inflammatory gene expression in microglia (FIGS. 4C-4E). […] BET inhibition specifically decreases the expression of inflammatory genes (Il6, Cd33, and Nlrp3), interferon response pathway (Ifnb, Irf2/9, Mx1) and cell death mediators (Bid, Casp1/4/7/12, Traf1). […] Nicodeme et al., “Suppression of Inflammation by a Synthetic Histone Mimic,” Nature 468:1119-1123 (2010), which is hereby incorporated by reference in its entirety.

SMILES: CC(=O)N1c2ccc(-c3ccc(CN4CCCCC4)cc3)cc2[C@H](Nc2ccccc2)CC1C (stereo in doubt) [IBET858]
- contextual recall [1]: significantly increased
- cellular composition of the culture and cell identity gene expression ([2]; 1 week IBET858): does not change
- autophagy, proteolysis and pro-survival genes ([2]; chronic BET inhibition): up-regulation
- metabolic genes (amino acid synthesis and import, glycolysis/TCA cycle, oxidative phosphorylation, fatty acid metabolism) ([2]; chronic BET inhibition, day 14): down-regulated
- genes decreased by rapamycin that were also decreased by IBET858 ([2]; one week treatment, 93/165): 56%
- chemotaxis, cell proliferation and NFkB pathway genes after LPS ([3]; 1 μM): insensitive
- microglial identity genes Tyrobp, Hexb and Trem2 after LPS ([3]; 1 μM): unaffected
- LPS gene induction ([3]; 1 μM pretreatment 30 min, LPS 1 h): little effect
- LPS induced genes inhibited / LPS induced genes ([3]; LPS 4 hours): 514/960
- LPS induced genes inhibited / LPS induced genes ([3]; LPS 12 hours): 484/747

Reference: patent US12691124B2, “Methods of controlling and improving brain health” (ICAHN SCHOOL OF MEDICINE AT MOUNT SINAI, priority 2019, dated 2026)
